Experimental findings from US8980917B2, “Methods for treating or preventing brain infections” (The Johns Hopkins University, priority 2008, dated 2015) are described below.

“Also recorded” adds a separate entry of the source.

One series deals with C. neoformans. The series is described as follows: Mouse model of C. neoformans meningitis/meningoencephalitis following intravenous inoculation. Conditions: strain B-3501A; cPLA2α-/- mice; i.v. 1.2 μg/mouse 30 mins before C. neoformans injection; 24 hours. The series is classed as in vivo. As to the method: The mouse model of Cryptococcal meningitis/meningoencephalitis following intravenous inoculation was used to determine the hematogenous dissemination of C. neoformans to the brain as described previously (7, 8). C. neoformans strains grown on 1% yeast extracts, 2% peptone and 2% dextrose (YPD) agar were suspended in phosphate-buffered saline (PBS, pH 7.4) and counted with a hemocytometer to determine the yeast cell number. This suspension was also cultured on YPD agar plates, and colonies (CFUs) counted after 3 days of incubation at 30° C. as previously described (11). The inoculum size was confirmed by CFUs.
Briefly, female BALB/c mice received 10^5 yeast cells via the tail vein. 24 hours later, the blood specimens were obtained for determination of CFUs, and the animals perfused with sterile Ringer's solution until the perfused solution became colorless. The brains were removed, weighed, homogenized and cultured on YPD agar for determination of CFUs.
cPLA2α. We examined the role of host cPLA2α in C. neoforman strain B-3501A penetration into the brain by studying cPLA2α−/− mice as compared to their strain-matched wild type mice. Each animal received 10^5 yeast cells via the tail vein. 24 hours later, the blood specimens were obtained for determination of CFUs, and the animals perfused with sterile Ringer's solution until the perfused solution became colorless. […]

For another series, the system named is blood-brain barrier. Nature of the series: Blood-brain barrier permeability by Evans blue dye extravasation into the brain. The format is in vivo, mouse. Conditions: cPLA2α-/- mice.
Another series concerns E. coli K1 strain RS218. The series is described as follows: Mouse model of experimental hematogenous E. coli meningitis (cPLA2α-/- and wild type BALB/c mice). The series is classed as in vivo. Particulars: i.v. 1.2 μg/mouse in 50 μl PBS 30 mins before bacterial injection. The protocol:
cPLA2α−/− and wild type mice, either male or female, […] that had been backcrossed on the BALB/c strain for >10 generations were used^14. All procedures and handling techniques were approved by The Johns Hopkins Animal Care and Use Committee.
Each mouse received 1×10^7 CFU of E. coli K1 strain RS218 in 100 μl PBS via the tail vein. One hour later, mouse chest was cut open, and blood from right ventricle was collected and plated for bacteria counts, which were expressed as CFUs/ml of blood. The mouse was then perfused with a mammalian Ringer's solution by transcardiac perfusion through a 23-gauge needle inserted into the left ventricle of the heart under the perfusion pressure of about 100 mmHg. The perfusate exited through a cut in the right atrium. […] The brains were removed, weighed and homogenized in 2 ml RPMI followed by plating for bacterial counts, which were expressed as CFUs/gm. Since E. coli K1 penetration into the brain is shown to depend on the magnitude of bacteremia^5,7, bacterial penetration into the brain was also expressed as [(brain CFUs per gm)/(blood CFUs per ml)]×100. Kidneys and spleens were also removed, homogenized and plated for determination of bacterial counts, which were expressed as CFUs/gm. […]

Regarding `CCCCC/C=C\C/C=C\C/C=C\C/C=C\CCCC(=O)O` [arachidonic acid, Arachidonic acid], the “C. neoformans penetration into the brain (CFU/gm)” value with C. neoformans is reported as “significantly enhanced C. neoformans penetration into the brain to the level observed in the wild type mice”. For the same compound, the “blood-brain barrier permeability (Evans blue extravasation into the brain)” value was “no significantly increased extravasation of intravenously administered Evans blue dye into the brain; also recorded: did not affect the blood-brain barrier permeability” in the series on blood-brain barrier (1.2 μg i.v. 30 min before E. coli RS218 injection) and “not accompanied by any change in the blood-brain barrier permeability” in the series on blood-brain barrier (1.2 μg/mouse i.v. 30 mins before C. neoformans injection). Moreover, the “E. coli K1 penetration into the brain (brain CFU/gm and percent of brain CFU/blood CFU)” value in the series with E. coli K1 strain RS218 is listed as “significantly enhanced E. coli K1 penetration into the brain to the level observed in the wild type mice”.
